Laboratory results: patent publication US10751303B2, “Method for shortening anti-infective therapy duration in subjects with infection” (INSTITUTE FOR CLINICAL PHARMACODYNAMICS, INC., priority 2015, dated 2020)
In brackets after ≈: the same amount, converted by molar mass. Entries after “also recorded” stand apart in the source; their conditions may differ.

Experiments:
Format in all cases: cell-based
E. coli JMI 21711R [1] = assay: change in bacterial density in vitro over 24 hours (growth rate)
Text: Moreover, note the impact of ascorbic acid on the time-course of levofloxacin antimicrobial activity.

E. coli JMI 21711R [2] = settings: norepinephrine 500 μM, no levofloxacin
Experimental: Each treatment arm and its associated control arm differed only in norepinephrine concentration (0, 500 μM) within the growth media.

S. aureus ATCC 29213 [3] = assay: change in bacterial density in vitro over 24 hours (growth rate in Mueller-Hinton II broth); settings: S. aureus ATCC 29213, in vitro over 24 hours, starting inoculum 1×10^6 CFU/mL, increasing sodium chloride concentration
S. aureus ATCC 29213 [4] = assay: 24-hour one-compartment dynamic in vitro infection model; settings: 10% sodium chloride, no levofloxacin
Text: Not previously recognized is the potential to modulate the intrinsic bacterial replication rate in combination with an antimicrobial agent as a means to increase the rate and extent of bactericidal activity. […] Each treatment arm and associated control arm differed only in sodium chloride concentration (0, 8, and 10%) within the growth media. […] Note also that bacterial killing occurred only during bacterial replication.

S. aureus ATCC 29213 [5] = assay: levofloxacin MIC; settings: Staphylococcus aureus, ATCC29213
E. coli JMI 21711R [6] = assay: levofloxacin MIC; settings: Escherichia coli, JMI21711R
S. aureus ATCC 29213 [7] = assay: 10-day hollow-fiber in vitro infection model
Text: The treatment arms and associated control arms differed only in sodium chloride concentration (0 and 8%) within the growth media. The initial bacterial inoculum in the model was 1×10^8 CFU/mL was selected to approximate that observed in high-density infections, such as pneumonia. Moreover, the 10-day study duration was selected to approximate that typical for pneumonia.
Note that in the media in which the challenge isolate grew slowly (sodium chloride 8%), the time-until a reduction of bacterial density to 1×10^2 CFU/mL was 10 days. On the other hand, in the media in which the challenge isolate grew rapidly (sodium chloride 0%), the time-until reduction of bacterial density to 1×10^2 CFU/mL was 3 days.

SMILES: O=C1O[C@H]([C@@H](O)CO)C(O)=C1O [ascorbic acid, Ascorbic acid]
- bacterial replication rate relative to no treatment control (E. coli JMI 21711R [1]; ascorbic acid without levofloxacin): increases the bacterial replication rate relative to no treatment control

SMILES: NCC(O)c1ccc(O)c(O)c1 (stereo not shown) [norepinephrine, Norepinephrine]
- bacterial replication rate (change in bacterial density) (E. coli JMI 21711R [1]; starting inoculum 1×10^6 CFU/mL, increasing norepinephrine concentration): as norepinephrine concentration increases so too does the bacterial replication rate; also recorded: sped up
- growth of control arm relative to no-treatment control arm (E. coli JMI 21711R [2]): grew faster

SMILES: [Cl-].[Na+] [sodium chloride]
- bacterial replication rate (change in bacterial density) (S. aureus ATCC 29213 [3]): as sodium chloride concentration increases, the bacterial replication rate decreases; also recorded: slowed
- growth in control arm (S. aureus ATCC 29213 [4]): delayed for four hours

SMILES: C[C@H]1COc2c(N3CCN(C)CC3)c(F)cc3c(=O)c(C(=O)O)cn1c23 [levofloxacin]
- MIC (S. aureus ATCC 29213 [5]): 0.125 µg/mL (≈ 0.346 µM)
- MIC (E. coli JMI 21711R [6]): 8 µg/mL (≈ 22.1 µM)
- reduction in time-until a reduction of bacterial density to 1×10^2 CFU/mL (S. aureus ATCC 29213 [7]; fast (sodium chloride 0%) versus slow (sodium chloride 8%) growing media): 70%
- time-until reduction of bacterial density to 1×10^2 CFU/mL (S. aureus ATCC 29213 [7]; sodium chloride 0% (rapid growth), initial inoculum 1×10^8 CFU/mL, levofloxacin AUC:MIC ratio 520): 3 days
- time-until a reduction of bacterial density to 1×10^2 CFU/mL (S. aureus ATCC 29213 [7]; sodium chloride 8% (slow growth), initial inoculum 1×10^8 CFU/mL, levofloxacin AUC:MIC ratio 520): 10 days
